Measured values published in ChEMBL document CHEMBL1201862, “PubChem BioAssay data set” (2004).
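These data come from cells grown in 96-well plates and exposed to compound for 48 hours at five concentrations. At the GI50, growth is halved.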 The source made the active and inactive calls. Rule as the data show it: active = GI50 up to about 1.1 µM and inactive = higher.

What was measured:
Assay in all cases: NCI tumour cell line growth inhibition, 48 h
SW-620 = test system: SW-620
T47D = test system: T47D
M14 = test system: M14
786-0 = test system: 786-0
NCI-H226 = test system: NCI-H226
SK-MEL-5 = test system: SK-MEL-5
NCI-H460 = test system: NCI-H460
HOP-92 = test system: HOP-92
RPMI-8226 = test system: RPMI-8226
SF-268 = test system: SF-268
A549 = test system: A549
SK-OV-3 = test system: SK-OV-3
EKVX = test system: EKVX
OVCAR-3 = test system: OVCAR-3
HCC 2998 = test system: HCC 2998
KM12 = test system: KM12
HOP-62 = test system: HOP-62
HL-60 = test system: HL-60
MCF7 = test system: MCF7
UACC-62 = test system: UACC-62
IGROV-1 = test system: IGROV-1
SR = test system: SR
OVCAR-8 = test system: OVCAR-8
HCT-116 = test system: HCT-116
NCI-H23 = test system: NCI-H23
RXF 393 = test system: RXF 393
SK-MEL-28 = test system: SK-MEL-28
Hs-578T = test system: Hs-578T
CCRF-CEM = test system: CCRF-CEM
MDA-N = test system: MDA-N
SF-295 = test system: SF-295
NCI-H522 = test system: NCI-H522
ACHN = test system: ACHN
SN12C = test system: SN12C
OVCAR-4 = test system: OVCAR-4
UO-31 = test system: UO-31
LOX IMVI = test system: LOX IMVI
CAKI-1 = test system: CAKI-1
U-251 = test system: U-251
MOLT-4 = test system: MOLT-4
HCT-15 = test system: HCT-15
DU-145 = test system: DU-145
NCI/ADR-RES = test system: NCI/ADR-RES
K562 = test system: K562
MDA-MB-435 = test system: MDA-MB-435
SF-539 = test system: SF-539
TK-10 = test system: TK-10
SNB-75 = test system: SNB-75
OVCAR-5 = test system: OVCAR-5
UACC-257 = test system: UACC-257
A498 = test system: A498
HT-29 = test system: HT-29
COLO 205 = test system: COLO 205
PC-3 = test system: PC-3
Malme-3M = test system: Malme-3M
SK-MEL-2 = test system: SK-MEL-2
SNB-19 = test system: SNB-19
MDA-MB-231 = test system: MDA-MB-231

With `O=C(CC(C(=O)c1ccsc1)c1ccc2c(c1)OCO2)c1ccccc1` (centres undefined) the GI50 (SW-620) was > 100 µM (inactive), the GI50 (T47D) was 51.6 µM (inactive) and the GI50 (M14) was > 100 µM (inactive). For the same molecule, the GI50 (786-0) was > 100 µM (inactive), the GI50 (NCI-H226) was > 100 µM (inactive) and the GI50 (SK-MEL-5) was 95.9 µM (inactive). For the same molecule, the GI50 (NCI-H460) was 94 µM (inactive), the GI50 (HOP-92) was > 100 µM (inactive) and the GI50 (RPMI-8226) was > 100 µM (inactive). For the same molecule, the GI50 (SF-268) was > 100 µM (inactive), the GI50 (A549) was 8.17 µM (inactive) and the GI50 (SK-OV-3) was > 100 µM (inactive). The GI50 (EKVX) was > 100 µM (inactive), the GI50 (OVCAR-3) was > 100 µM (inactive) and the GI50 (HCC 2998) was > 100 µM (inactive). The GI50 (KM12) was > 100 µM (inactive), the GI50 (HOP-62) was > 100 µM (inactive) and the GI50 (HL-60) was > 100 µM (inactive). For the same molecule, the GI50 (MCF7) was 88.3 µM (inactive), the GI50 (UACC-62) was > 100 µM (inactive) and the GI50 (IGROV-1) was > 100 µM (inactive). For the same molecule, the GI50 (SR) was > 100 µM (inactive), the GI50 (OVCAR-8) was > 100 µM (inactive) and the GI50 (HCT-116) was > 100 µM (inactive). For the same molecule, the GI50 (NCI-H23) was 0.209 µM (active), the GI50 (RXF 393) was > 100 µM (inactive) and the GI50 (SK-MEL-28) was > 100 µM (inactive). The GI50 (Hs-578T) was > 100 µM (inactive), the GI50 (CCRF-CEM) was > 100 µM (inactive) and the GI50 (MDA-N) was > 100 µM (inactive). The GI50 (SF-295) was > 100 µM (inactive), the GI50 (NCI-H522) was 59 µM (inactive) and the GI50 (ACHN) was > 100 µM (inactive). For the same molecule, the GI50 (SN12C) was > 100 µM (inactive), the GI50 (OVCAR-4) was > 100 µM (inactive) and the GI50 (UO-31) was > 100 µM (inactive). The GI50 (LOX IMVI) was > 100 µM (inactive), the GI50 (CAKI-1) was > 100 µM (inactive) and the GI50 (U-251) was > 100 µM (inactive). The GI50 (MOLT-4) was > 100 µM (inactive), the GI50 (HCT-15) was over 100 µM and the GI50 (DU-145) was > 100 µM (inactive). The GI50 (NCI/ADR-RES) was > 100 µM (inactive), the GI50 (K562) was > 100 µM (inactive) and the GI50 (MDA-MB-435) was > 100 µM (inactive). The GI50 (SF-539) was > 100 µM (inactive), the GI50 (TK-10) was > 100 µM (inactive) and the GI50 (SNB-75) was > 100 µM (inactive). For the same molecule, the GI50 (OVCAR-5) was > 100 µM (inactive), the GI50 (UACC-257) was > 100 µM (inactive) and the GI50 (A498) was > 100 µM (inactive). The GI50 (HT-29) was > 100 µM (inactive) and the GI50 (COLO 205) was > 100 µM (inactive).

In the case of `Cc1cn(C2OC(CO[Si](C)(C)C(C)(C)C)C(N(C)O[Si](C)(C)C(C)(C)C)C2[Se]c2ccccc2)c(=O)[nH]c1=O` (centres undefined), the GI50 (SW-620) is reported as 3.48 µM (inactive), the GI50 (M14) is reported as 8.3 µM (inactive) and the GI50 (786-0) is reported as 2.89 µM (inactive). The GI50 (NCI-H226) was 3.95 µM (inactive), the GI50 (SK-MEL-5) was 4.16 µM (inactive) and the GI50 (PC-3) was 3.85 µM (inactive). The GI50 (HOP-92) was 1.9 µM (inactive), the GI50 (RPMI-8226) was 3.18 µM (inactive) and the GI50 (SF-268) was 2.75 µM (inactive). For the same molecule, the GI50 (A549) was 4.48 µM (inactive), the GI50 (Malme-3M) was 11.6 µM (inactive) and the GI50 (SK-OV-3) was 17.4 µM (inactive). For the same molecule, the GI50 (OVCAR-3) was 4.39 µM (inactive), the GI50 (HCC 2998) was 0.0325 µM (active) and the GI50 (KM12) was 3.66 µM (inactive). The GI50 (SK-MEL-2) was 7.6 µM (inactive), the GI50 (HOP-62) was 4.76 µM (inactive) and the GI50 (HL-60) was > 100 µM (inactive). For the same molecule, the GI50 (MCF7) was 4.71 µM (inactive), the GI50 (UACC-62) was 8.75 µM (inactive) and the GI50 (IGROV-1) was 8.17 µM (inactive). The GI50 (SNB-19) was 5.82 µM (inactive), the GI50 (SR) was 9.89 µM (inactive) and the GI50 (OVCAR-8) was 3.74 µM (inactive). For the same molecule, the GI50 (HCT-116) was 3.56 µM (inactive), the GI50 (NCI-H23) was 4.6 µM (inactive) and the GI50 (SK-MEL-28) was 5.56 µM (inactive). The GI50 (Hs-578T) was 2.67 µM (inactive), the GI50 (CCRF-CEM) was 11.8 µM (inactive) and the GI50 (MDA-N) was 8.93 µM (inactive). For the same molecule, the GI50 (SF-295) was 4.15 µM (inactive), the GI50 (NCI-H522) was 3.25 µM (inactive) and the GI50 (ACHN) was 3.92 µM (inactive). For the same molecule, the GI50 (SN12C) was 5.65 µM (inactive), the GI50 (OVCAR-4) was 2.87 µM (inactive) and the GI50 (UO-31) was 3.23 µM (inactive). For the same molecule, the GI50 (LOX IMVI) was 2.94 µM (inactive), the GI50 (U-251) was 3 µM (inactive) and the GI50 (MOLT-4) was 3.72 µM (inactive). The GI50 (HCT-15) was 4.59 µM, the GI50 (MDA-MB-231) was 6.27 µM (inactive) and the GI50 (DU-145) was 8.93 µM (inactive). The GI50 (NCI/ADR-RES) was 13.2 µM (inactive), the GI50 (K562) was 7.59 µM (inactive) and the GI50 (MDA-MB-435) was 3.79 µM (inactive). The GI50 (TK-10) was 5.24 µM (inactive), the GI50 (SNB-75) was 4.79 µM (inactive) and the GI50 (OVCAR-5) was 2.82 µM (inactive). The GI50 (A498) was 14.9 µM (inactive), the GI50 (HT-29) was 3.34 µM (inactive) and the GI50 (COLO 205) was 5.38 µM (inactive).
